# Data reported in patent US7414047B2, “Piperazinyl and diazapanyl benzamides and benzthioamides” (Janssen Pharmaceutica N.V., priority 2002, dated 2008).
# Where a name gives a salt, the structure may show the parent alone.
# Target: T1, human histamine H3 receptor (Homo sapiens, UniProt Q9Y5N1)
# T1 construct: One microgram of supercoiled H3 receptor cDNA was added to the cells and mixed; expressed in transfected cells; membranes prepared from cell pellets
# Experiment: {3H}-N-methylhistamine binding
# Settings: not given
# Description: Transfection of Cells with Human Histamine Receptor
# A 10 cm tissue culture dish with a confluent monolayer of SK-N-MC cells was split two days prior to transfection. Using sterile technique the media was removed and the cells were detached from the dish by the addition of trypsin. One fifth of the cells were then placed onto a new 10 cm dish. Cells were grown in a 37° C. incubator with 5% CO2 in Minimal Essential Media Eagle with 10%. Fetal Bovine Serum. After two days cells were approximately 80% confluent. These were removed from the dish with trypsin and pelleted in a clinical centrifuge. The pellet was then re-suspended in 400 μL complete media and transferred to an electroporation cuvette with a 0.4 cm gap between the electrodes. One microgram of supercoiled H3 receptor cDNA was added to the cells and mixed. The voltage for the electroporation was set at 0.25 kV, the capacitance was set at 960 μF. After electroporation the cells were diluted into 10 mL complete media and plated onto four 10 cm dishes. Because of the variability in the efficiency of electroporation, four different concentrations of cells were plated. The ratios used were; 1:20, 1:10, 1:5, with the remainder of the cells being added to the fourth dish. […] After 10 days dishes were analyzed for surviving colonies of cells. Dishes with well-isolated colonies were used. Cells from individual colonies were isolated and tested. SK-N-MC cells were used because they give efficient coupling for inhibition of adenylate cyclase. The clones that gave the most robust inhibition of adenylate cyclase in response to histamine were used for further study.
# {^3H}-N-methylhistamine Binding
# Cell pellets from histamine H3 receptor-expressing SK-N-MC cells were homogenized in 20 mM TrisHCl/0.5 mM EDTA. Supernatants from an 800 g spin were collected, recentrifuged at 30,000 g for 30 min. Pellets were re-homogenized in 50 mM Tris/5 mM EDTA (pH 7.4). […] Filters were dried, added to 4 mL scintillation cocktail and then counted on a liquid scintillation counter. Non-specific binding was defined with 10 μM histamine.
# T1 sequence (Q9Y5N1 whole entry): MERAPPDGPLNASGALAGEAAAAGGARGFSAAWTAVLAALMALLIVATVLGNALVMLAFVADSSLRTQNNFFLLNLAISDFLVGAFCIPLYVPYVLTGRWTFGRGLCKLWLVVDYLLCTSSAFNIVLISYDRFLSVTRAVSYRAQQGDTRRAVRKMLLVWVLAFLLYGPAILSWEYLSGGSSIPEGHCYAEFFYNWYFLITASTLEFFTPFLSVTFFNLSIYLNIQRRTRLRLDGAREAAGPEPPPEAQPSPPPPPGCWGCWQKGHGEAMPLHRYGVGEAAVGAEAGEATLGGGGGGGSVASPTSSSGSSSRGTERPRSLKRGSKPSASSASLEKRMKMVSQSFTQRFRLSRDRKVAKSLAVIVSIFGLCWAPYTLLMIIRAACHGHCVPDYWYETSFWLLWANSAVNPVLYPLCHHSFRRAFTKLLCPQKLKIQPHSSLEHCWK
row,Ki [µM],Compound
1,0.002,"CCC(CC)N1CCN(C(=O)c2ccc(CNCc3ccccc3)cc2)CC1 [Example 20, {4-(Benzylamino-methyl)-phenyl}-{4-(1-ethyl-propyl)-piperazin-1-yl}-methanone]"
2,0.002,"CCC(CC)N1CCN(C(=O)c2ccc(CN3CCCCCC3)cc2)CC1 [Example 21, (4-Azepan-1-ylmethyl-phenyl)-{4-(1-ethyl-propyl)-piperazin-1-yl}-methanone]"
3,0.002,"CCC(CC)N1CCN(C(=O)c2ccc(CN3CCC4CCCCC4C3)cc2)CC1 (stereo not shown) [Example 22, {4-(1-Ethyl-propyl)-piperazin-1-yl}-{4-(decahydro-isoguinolin-2-ylmethyl)-phenyl}-methanone]"
4,0.0009,"CCC(C)N1CCN(C(=O)c2ccc(CN3CCCCCC3)cc2)CC1 (stereo not shown) [Example 23, (4-Azepan-1-ylmethyl-phenyl)-(4-sec-butyl-piperazin-1-yl)-methanone]"
5,0.0015,"CCC(C)N1CCN(C(=O)c2ccc(CN(C)C)cc2)CC1 (stereo not shown) [Example 24, (4-sec-Butyl-piperazin-1-yl)-(4-dimethylaminomethyl-phenyl)-methanone]"
6,0.001,"CCC(C)N1CCN(C(=O)c2ccc(CN3CCCC3)cc2)CC1 (stereo not shown) [Example 25, (4-sec-Butyl-piperazin-1-yl)-(4-pyrrolidin-1-ylmethyl-phenyl)-methanone]"
7,0.0009,"CCC(CC)N1CCN(C(=O)c2ccc(CN3CCCC3)cc2)CC1 [Example 26, {4-(1-Ethyl-propyl)-piperazin-1-yl}-(4-pyrrolidin-1-ylmethyl-phenyl)-methanone]"
8,0.0004,"CCC(CC)N1CCN(C(=O)c2ccc(CN3CCCCC3)cc2)CC1 [Example 27, {4-(1-Ethyl-propyl)-piperazin-1-yl}-(4-piperidin-1-ylmethyl-phenyl)-methanone]"
9,0.0009,"CCC(C)N1CCN(C(=O)c2ccc(CN3CCCCC3)cc2)CC1 (stereo not shown) [Example 28, (4-sec-Butyl-piperazin-1-yl)-(4-piperidin-1-ylmethyl-phenyl)-methanone]"
10,0.038,"CCC(C)N1CCN(C(=O)c2ccc(CNc3ccccc3)cc2)CC1 (stereo not shown) [Example 29, (4-sec-Butyl-piperazin-1-yl)-(4-phenylaminomethyl-phenyl)-methanone]"
11,0.018,"CCCCN1CCN(C(=O)c2ccc(CN(C)C)cc2)CC1 [Example 30, (4-Butyl-piperazin-1-yl)-(4-dimethylaminomethyl-phenyl)-methanone]"
12,0.63,"CCCCN1CCN(C(=O)c2ccc(CNc3ccc(C(F)(F)F)cc3)cc2)CC1 [Example 31, (4-Butyl-piperazin-1-yl)-{4-{(4-trifluoromethyl-phenylamino)-methyl}-phenyl}-methanone]"
13,0.13,"CCCCCCC(C)N1CCN(C(=O)c2ccc(CN3CCOCC3)cc2)CC1 (stereo not shown) [Example 32, {4-(1-Methyl-heptyl)-piperazin-1-yl}-(4-morpholin-4-ylmethyl-phenyl)-methanone]"
14,0.052,"CCCCCCC(C)N1CCN(C(=O)c2ccc(CN3CCCCC3)cc2)CC1 (stereo not shown) [Example 33, {4-(1-Methyl-heptyl)-piperazin-1-yl}-(4-piperidin-1-ylmethyl-phenyl)-methanone]"
15,0.068,"CC(C)N1CCN(C(=O)c2ccc(CNc3ccc(C(F)(F)F)cc3)cc2)CC1 [Example 34, (4-Isopropyl-piperazin-1-yl)-{4-{(4-trifluoromethyl-phenylamino)-methyl}-phenyl}-methanone]"
16,0.012,"CCCCN1CCN(C(=O)c2ccc(CN3CCCC(C(F)(F)F)C3)cc2)CC1 (stereo not shown) [Example 36, (4-Butyl-piperazin-1-yl)-{4-(3-trifluoromethyl-piperidin-1-ylmethyl)-phenyl}-methanone]"
17,0.009,"CCCCN1CCN(C(=O)c2ccc(CN3CCOCC3)cc2)CC1 [Example 37, (4-Butyl-piperazin-1-yl)-(4-morpholin-4-ylmethyl-phenyl)-methanone]"
18,0.18,"CC(C)N1CCN(C(=O)c2cccc(CN3CCOCC3)c2)CC1 [Example 38, (4-Isopropyl-piperazin-1-yl)-(3-morpholin-4-ylmethyl-phenyl)-methanone]"

row,Ki [µM],Compound
1,0.035,"CC(C)N1CCN(C(=O)c2cccc(CN3CCCCC3)c2)CC1 [Example 39, (4-Isopropyl-piperazin-1-yl)-(3-piperidin-1-ylmethyl-phenyl)-methanone]"
2,0.003,CC(C)N1CCN(C(=O)c2ccc(CN3CCOCC3)cc2)CC1 [Example 40]
3,0.8,"CN1CCN(C(=O)c2cccc(CN3CCC(Cc4ccccc4)CC3)c2)CC1 [Example 42, {3-(4-Benzyl-piperidin-1-ylmethyl)-phenyl}-(4-methyl-piperazin-1-yl)-methanone]"
4,0.022,"CN1CCN(C(=O)c2ccc(CN3CCOCC3)cc2)CC1 [Example 43, (4-Methyl-piperazin-1-yl)-(4-morpholin-4-ylmethyl-phenyl)-methanone dihydrochloride]"
5,0.085,"CC(C)N1CCN(C(=O)c2ccc(CNc3cc(C(F)(F)F)ccn3)cc2)CC1 [Example 44, (4-Isopropyl-piperazin-1-yl)-{4-{4-trifluoromethyl-pyridin-2-ylamino)-methyl}-phenyl}-methanone dihydrochloride]"
6,0.054,"CCC(CC)N1CCN(C(=O)c2ccc(CNc3ccccc3)cc2)CC1 [Example 45, {4-(1-Ethyl-propyl)-piperazin-1-yl}-(4-phenylaminomethyl-phenyl)-methanone dihydrochloride]"
7,0.002,"CCC(CC)N1CCN(C(=O)c2ccc(CN(C)C)cc2)CC1 [Example 46, (4-Dimethylaminomethyl-phenyl)-{4-(1-ethyl-propyl)-piperazin-1-yl}-methanone dihydrochloride]"
8,0.081,"CCC(CC)N1CCN(C(=O)c2ccc(CNc3ccc(C(F)(F)F)cc3)cc2)CC1 [Example 47, {4-(1-Ethyl-propyl)-piperazin-1-yl}-{-{4-{(4-trifluoromethyl-phenylamino)-methyl}-phenyl}-methanone dihydrochloride]"
9,0.001,"CCC(CC)N1CCN(C(=O)c2ccc(CN3CCOCC3)cc2)CC1 [Example 48, {4-(1-Ethyl-propyl)-piperazin-1-yl}-(4-morpholin-4-ylmethyl-phenyl)-methanone dihydrochloride]"
10,0.004,"CCC(CC)N1CCN(C(=O)c2ccc(CN3CCCC(C(F)(F)F)C3)cc2)CC1 (stereo not shown) [Example 49, {4-(1-Ethyl-propyl)-piperazin-1-yl}-{4-(3-trifluoromethyl-piperidin-1-ylmethyl)-phenyl}-methanone dihydrochloride]"
11,0.03,"CCC(C)N1CCN(C(=O)c2ccc(CN3CCCC(C(F)(F)F)C3)cc2)CC1 (stereo not shown) [Example 50, (4-sec-Butyl-piperazin-1-yl)-{4-(3-trifluoromethyl-piperidin-1-ylmethyl)-phenyl}-methanone dihydrochloride]"
12,0.002,"CCC(C)N1CCN(C(=O)c2ccc(CN3CCOCC3)cc2)CC1 (stereo not shown) [Example 51, (4-sec-Butyl-piperazin-1-yl)-(4-morpholin-4-ylmethyl-phenyl)-methanone dihydrochloride]"
13,0.014,"CC(C)N1CCN(C(=O)c2ccc(CNc3ccc(C(F)(F)F)nc3)cc2)CC1 [Example 52, (4-Isopropryl-piperazin-1-yl)-{4-{(6-trifluoromethyl-pyridin-3-ylamino)-methyl}-phenyl}-methanone dihydrochloride]"
14,0.03,"CC(C)N1CCN(C(=O)c2ccc(CNc3ccc(Cl)cn3)cc2)CC1 [Example 53, {4-{(5-Chloro-pyridin-2-ylamino)-methyl}-phenyl}-4-isopropyl-piperazin-1-yl)-methanone dihydrochloride]"
15,0.024,"CN1CCN(C(=O)c2ccc(CN3CCCCC3)cc2)CC1 [Example 54, (4-Methyl-piperazin-1-yl)-(4-piperidin-1-ylmethyl-phenyl)-methanone dihydrochloride]"
16,0.049,"CC(C)N1CCN(C(=O)c2ccc(CNc3ccc(C(F)(F)F)cn3)cc2)CC1 [Example 55, (4-Isopropyl-piperazin-1-yl)-{4-{(5-trifluoromethyl-pyridin-2-ylamino)-methyl}-phenyl}-methanone dihydrochloride]"
17,0.001,"CC(C)N1CCN(C(=O)c2ccc(CN3CCCC(C(F)(F)F)C3)cc2)CC1 (stereo not shown) [Example 56, (4-Isopropyl-piperazin-1-yl)-{4-(3-trifluoromethyl-piperidin-1-ylmethyl)-phenyl}-methanone dihydrochloride]"
18,0.006,"CCN(CC)Cc1ccc(C(=O)N2CCN(C(C)C)CC2)cc1 [Example 57, (4-Diethylaminomethyl-phenyl)-(4-isopropyl-piperazin-1-yl)-methanone dihydrochloride]"

# Same assay, conditions: membranes of histamine H3 receptor-expressing SK-N-MC cells; 0.8 nM {3H}-N-methylhistamine; 45 min at 25° C.; […]
row,Compound,Ki [µM]
1,"CC(C)N1CCN(Cc2ccc(C(=O)N3CCN(C(C)C)CC3)cc2)CC1 [Example 35, (4-Isopropyl-piperazin-1-yl)-{4-(4-isopropyl-piperazin-1-ylmethyl)-phenyl}-methanone]",0.018
